In US20080249042A1, “All-Trans-Retinol: All-Trans-13,14-Dihydroretinol Saturase and Methods of Its Use” (UNIVERSITY OF WASHINGTON, priority 2004, published 2008):
Like-named read-outs stand apart in the source and are kept apart here.

Key:
[1] = Liver retinoids of Lrat-/- mice 3 h after gavage with all-trans-ROL palmitate; assay type: in vivo, mouse; conditions: for Level of liver retinoids 3 hr following gavage with ROL palmitate / concentration at 3 h: Lrat-/- mice, 3 hr post-gavage, liver; for concentration at 3 h: Lrat−/− (LRAT-deficient knockout), mouse, oral, read-out: Level of liver retinoids 3 hr following gavage with ROL palmitate
From the text: Metabolism of Retinoids in Vivo. All animal experiments employed procedures approved by the University of Washington and conformed to recommendations of the American Veterinary Medical Association Panel on Euthanasia and recommendations of the Association of Research for Vision and Ophthalmology. Animals were maintained on a 12-h light and 12-h dark cycle. All manipulations were done under dim red or infrared light (>560 nm). Most experiments used 6-12-week-old mice. Lrat−/− mice were genotyped as described previously. Batten, et al. J. Biol. Chem. 279:10422-10432, 2004. Animals were maintained on a control chow diet up to 1 h prior to oral gavage. The appropriate amount of all-trans-ROL palmitate, all-trans-DROL, or all-trans-RA was dissolved in vegetable oil and administered by oral gavage 3 h prior to analysis.
Analysis of Retinoids. Liver (1 g) from retinoid gavaged or naive mice was homogenized in 2 ml of 137 mM NaCl, 2.7 mM KCl, and 10 mM sodium phosphate (pH 7.4) for 30 s using a Polytron homogenizer. 10 μl of 5 M NaOH was added to 3 ml of the ethanolic extract, and the nonpolar retinoids were extracted using 5 ml of hexane. The extraction was repeated, and the organic phases were combined, dried under vacuum, resuspended in hexane, and examined by normal phase HPLC using a normal phase column (Beckman Ultrasphere Si 5μ, 4.6×250 mm). The elution condition was an isocratic solvent system of 10% ethyl acetate in hexane (v/v) for 25 min at a flow rate of 1.4 ml/min at 20° C. with detection at 325 and 290 nm for the detection of nonpolar retinoids and 13,14-dihydroretinoids, respectively. The aqueous phase was acidified with 40 μl of 12 N HCl, and polar retinoids were extracted with 5 ml of hexane. The extraction was repeated, and the organic phases of the polar retinoid extractions were combined, dried, resuspended in solvent composed of 80% CH3CN, 10 mM ammonium acetate, 1% acetic acid, and examined by reverse phase HPLC. Analysis of polar retinoids from tissues was done by reverse phase HPLC using a narrowbore, 120-Å, 5-μm, 2.1×250 mm, Denali C18 column (Grace-Vydac, Hesperia, Calif.). The solvent system was composed of buffer A, 80% methanol, 20% 36 mM ammonium acetate (pH 4.7 adjusted with acetic acid), and buffer B, 100% methanol. The HPLC elution conditions were […], 100% buffer A for 40 min, 100% buffer B for 10 min, and 10 min equilibration in buffer A. The elution profiles of RA and DRA were monitored using an online diode array detector set at 350 and 290 nm, respectively. The peaks were identified based on their UV-visible spectra and/or coelution with synthetic or commercially available standards. The measured area of absorbance was converted to picomoles based on a calibration of the HPLC columns using a known amount of all-trans-RA or all-trans-ROL (Sigma) and all-trans-DROL or all-trans-DRA (synthetic standards). The extraction efficiency was monitored by spiking a tissue sample with [^3H]RA (PerkinElmer Life Sciences) and monitoring the radioactivity recovered from the HPLC column. In the case of liver samples the extraction efficiency was 95% or better. Mass spectrometry analyses of synthesized retinoids and of natural retinoids purified by HPLC were performed using a Kratos profile HV-3 direct probe mass spectrometer.

RDH12 = molecular target: T1, RDH12 (Homo sapiens, UniProt Q96NR8); assay: Oxidation by RDH12; assay type: biochemical; conditions: results not shown
T1 sequence (Q96NR8 1-316): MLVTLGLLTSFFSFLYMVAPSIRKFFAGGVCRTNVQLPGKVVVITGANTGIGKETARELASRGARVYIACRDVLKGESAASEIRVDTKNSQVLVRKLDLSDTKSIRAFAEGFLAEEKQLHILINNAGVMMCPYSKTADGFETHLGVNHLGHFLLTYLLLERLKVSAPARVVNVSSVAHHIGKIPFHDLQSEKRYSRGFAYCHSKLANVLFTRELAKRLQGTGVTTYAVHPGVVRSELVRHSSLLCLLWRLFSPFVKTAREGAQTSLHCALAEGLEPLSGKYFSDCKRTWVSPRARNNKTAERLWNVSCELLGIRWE

mouse RetSat = molecular target: T2, mouse RetSat (Mus musculus, UniProt Q64FW2); assay: RetSat saturase activity in Tet-induced HEKK-RetSat cells; assay type: cell-based; conditions: 40 μM substrate, overnight incubation
T2 construct: expressed in transfected cells
T2 sequence (Q64FW2 26-609): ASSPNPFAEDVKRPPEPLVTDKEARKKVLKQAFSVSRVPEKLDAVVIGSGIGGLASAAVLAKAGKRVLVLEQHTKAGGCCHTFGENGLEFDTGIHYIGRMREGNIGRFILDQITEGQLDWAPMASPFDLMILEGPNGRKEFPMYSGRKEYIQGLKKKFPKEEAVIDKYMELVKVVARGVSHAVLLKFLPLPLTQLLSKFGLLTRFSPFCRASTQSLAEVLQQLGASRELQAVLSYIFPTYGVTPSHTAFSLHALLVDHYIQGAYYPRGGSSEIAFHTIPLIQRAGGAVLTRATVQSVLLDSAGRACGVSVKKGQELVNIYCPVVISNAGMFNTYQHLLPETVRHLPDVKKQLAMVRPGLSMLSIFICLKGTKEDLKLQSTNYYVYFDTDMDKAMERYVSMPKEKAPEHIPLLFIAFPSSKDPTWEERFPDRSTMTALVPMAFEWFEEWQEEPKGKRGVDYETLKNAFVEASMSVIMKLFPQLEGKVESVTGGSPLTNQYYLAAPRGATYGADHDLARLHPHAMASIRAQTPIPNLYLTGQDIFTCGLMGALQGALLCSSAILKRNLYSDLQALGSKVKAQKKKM
Method: Enzyme assays of RetSat and CRTISO-catalyzed reactions. For enzyme assay, cells were seeded in six-well plates and expression of RetSat or CRTISO was induced with 1 μg/ml tetracycline 48 hr prior to analysis. Substrate preparation and addition were conducted under dim red light. Retinoid substrates were purified by HPLC as described above and dissolved in N,N-dimethylformamide (DMF) to a final concentration of 4 mM. Organic extract of tangerine tomatoes was dried under a stream of argon and resuspended in DMF. The substrates were diluted in 300 μl complete media (tetracycline 1 μg/ml) to a 40 μM final concentration, overlayed on cells, and incubated overnight in the dark at 37° C. in 5% CO2 and 100% humidity. Media and cells were collected by scraping, mixed with an equal volume of methanol. For retinol and dihydroretinol analysis the methanol:water mixture was extracted with two volumes of hexane, then the organic phase was dried, resuspended in hexane, and analyzed by normal-phase HPLC. […] For carotenoid analysis the organic phase was dried and resuspended in ethanol/tetrahydrofuran (9:1) and examined by reverse-phase HPLC System I. For retinoic acid analysis the 1:1 methanol:water mixture was acidified with 0.1 volumes of 12N HCl and extracted with 1 volume of chlorofom, dried and resuspended in ethanol and examined by reverse-phase HPLC System II.

[2] = 3 h post-gavage with ROL palmitate
[3] = 10^5 IU/kg body weight all-trans-ROL palmitate
[4] = 10^6 IU/kg body weight all-trans-ROL palmitate

Row | SMILES | Liver level, fold lower than all-trans-RA [1, 2] | Level of liver retinoids 3 hr following gavage with ROL palmitate [1, 3] | Level of liver retinoids 3 hr following gavage with ROL palmitate [1, 4] | Liver level, fold lower than all-trans-ROL [1, 2] | Oxidation to the aldehyde by RDH12 (RDH12) | concentration at 3 h [1, 3] [µM] | concentration at 3 h [1, 4] [µM] | Saturation by RetSat (substrate activity) (mouse RetSat)
1 | CC1=C(/C=C/C(C)=C/C=C/C(C)CC(=O)O)C(C)(C)CCC1 (stereo not drawn) [all-trans-DRA, all-trans-13,14-dihydroretinoic acid] | 30-50 fold | 10 ± 2 pmol/g tissue | 190 ± 17 pmol/g tissue |  |  |  |  | 
2 | CC1=C(/C=C/C(C)=C/C=C/C(C)CCO)C(C)(C)CCC1 (stereo not drawn) [all-trans-DROL, all-trans-13,14-dihydroretinol] |  | 21 ± 4 pmol/g tissue | 100 ± 18 pmol/g tissue | 280-330 fold | much less so |  |  | 
3 | CC1=C(/C=C/C(C)=C/C=C/C(C)=C/C(=O)O)C(C)(C)CCC1 [all-trans-RA, all-trans-retinoic acid, reference compound] |  |  |  |  |  | 0.32 ± 0.24 | 9.4 | not substrate
4 | CC1=C(/C=C/C(C)=C/C=C/C(C)=C/CO)C(C)(C)CCC1 [all-trans-ROL, all-trans-retinol] |  | 7,000 ± 1,200 pmol/g tissue | 28,000 ± 300 pmol/g tissue |  | active |  |  | good substrate
